We go through one compound from ChEMBL document CHEMBL5096151, “Phytocannabinoid Pharmacology: Medicinal Properties of Cannabis sativa Constituents Aside from the "Big Two"” (J Nat Prod, 2021).

Assay [1] has as its target T1, Transient receptor potential cation channel subfamily V member 1 (Homo sapiens, UniProt Q8NER1). The assay is described as follows: Agonist activity at ionomycin-stimulated TRPV1 (unknown origin) activation assessed as efficacy relative to control.
Assay [2] concerns the target G-protein coupled receptor 6 (Homo sapiens, UniProt P46095). The assay is described as follows: Binding affinity to human GPR6 expressed in HEK293 cells assessed as reduction in cAMP level by measuring efficacy incubated for 1 hr by HTRF assay relative to control. The format is cell-based.
For assay [3], the target named is T2, Transient receptor potential cation channel subfamily V member 3 (Homo sapiens) (UniProt Q8NET8).
T2 sequence (whole entry): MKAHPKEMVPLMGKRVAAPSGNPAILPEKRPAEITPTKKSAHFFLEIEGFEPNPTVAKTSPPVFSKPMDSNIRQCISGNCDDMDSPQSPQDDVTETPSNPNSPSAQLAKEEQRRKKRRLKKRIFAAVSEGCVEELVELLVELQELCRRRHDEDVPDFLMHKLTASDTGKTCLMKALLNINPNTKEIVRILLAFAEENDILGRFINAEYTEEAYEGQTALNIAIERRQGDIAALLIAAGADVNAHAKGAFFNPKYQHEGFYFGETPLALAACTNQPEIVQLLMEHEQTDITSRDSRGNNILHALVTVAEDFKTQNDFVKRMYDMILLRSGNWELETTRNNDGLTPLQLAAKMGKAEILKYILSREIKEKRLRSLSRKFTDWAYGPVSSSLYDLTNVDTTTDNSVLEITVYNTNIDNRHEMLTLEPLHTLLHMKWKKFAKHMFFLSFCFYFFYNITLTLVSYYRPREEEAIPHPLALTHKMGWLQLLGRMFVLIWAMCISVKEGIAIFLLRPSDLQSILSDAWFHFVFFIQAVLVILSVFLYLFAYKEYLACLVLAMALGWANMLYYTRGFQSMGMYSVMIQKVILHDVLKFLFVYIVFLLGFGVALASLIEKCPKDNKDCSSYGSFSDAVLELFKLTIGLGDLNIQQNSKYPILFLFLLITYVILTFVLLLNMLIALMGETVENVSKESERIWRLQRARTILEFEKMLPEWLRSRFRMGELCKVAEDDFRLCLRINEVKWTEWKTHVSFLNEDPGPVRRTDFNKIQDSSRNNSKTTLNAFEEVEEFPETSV
The assay is described as follows: Agonist activity at ionomycin-stimulated TRPV3 (unknown origin) activation assessed as efficacy relative to control.

Assay [4] concerns the target T3, Transient receptor potential cation channel subfamily V member 2 (Homo sapiens) (UniProt Q9Y5S1).
T3 sequence (whole entry): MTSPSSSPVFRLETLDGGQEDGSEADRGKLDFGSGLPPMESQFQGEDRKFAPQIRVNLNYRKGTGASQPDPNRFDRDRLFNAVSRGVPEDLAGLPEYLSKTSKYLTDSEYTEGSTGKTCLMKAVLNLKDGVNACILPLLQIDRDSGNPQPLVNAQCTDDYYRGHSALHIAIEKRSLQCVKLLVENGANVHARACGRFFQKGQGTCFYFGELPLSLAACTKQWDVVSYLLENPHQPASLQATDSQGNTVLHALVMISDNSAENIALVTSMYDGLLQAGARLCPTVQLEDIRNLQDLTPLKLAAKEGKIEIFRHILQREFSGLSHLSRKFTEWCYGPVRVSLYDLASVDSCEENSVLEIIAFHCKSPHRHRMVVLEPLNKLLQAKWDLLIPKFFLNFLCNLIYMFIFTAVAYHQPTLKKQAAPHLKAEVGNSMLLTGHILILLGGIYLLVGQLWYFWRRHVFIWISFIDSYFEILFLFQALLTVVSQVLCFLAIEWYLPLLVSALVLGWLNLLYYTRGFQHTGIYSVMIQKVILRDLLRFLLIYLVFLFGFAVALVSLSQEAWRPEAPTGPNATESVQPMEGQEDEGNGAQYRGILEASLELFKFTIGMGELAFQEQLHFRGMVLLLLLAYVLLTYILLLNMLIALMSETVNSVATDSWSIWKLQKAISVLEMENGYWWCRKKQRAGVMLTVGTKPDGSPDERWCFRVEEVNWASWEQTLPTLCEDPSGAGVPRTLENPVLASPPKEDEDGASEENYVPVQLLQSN
The assay is described as follows: Agonist activity at ionomycin-stimulated TRPV2 (unknown origin) activation assessed as efficacy relative to control. The note with it: filed as agonist.

In assay [5] the target is T4, Transient receptor potential cation channel subfamily A member 1 (Homo sapiens, UniProt O75762). The assay is described as follows: Agonist activity at TRPA1 (unknown origin) activation.
T4 sequence (O75762 whole entry): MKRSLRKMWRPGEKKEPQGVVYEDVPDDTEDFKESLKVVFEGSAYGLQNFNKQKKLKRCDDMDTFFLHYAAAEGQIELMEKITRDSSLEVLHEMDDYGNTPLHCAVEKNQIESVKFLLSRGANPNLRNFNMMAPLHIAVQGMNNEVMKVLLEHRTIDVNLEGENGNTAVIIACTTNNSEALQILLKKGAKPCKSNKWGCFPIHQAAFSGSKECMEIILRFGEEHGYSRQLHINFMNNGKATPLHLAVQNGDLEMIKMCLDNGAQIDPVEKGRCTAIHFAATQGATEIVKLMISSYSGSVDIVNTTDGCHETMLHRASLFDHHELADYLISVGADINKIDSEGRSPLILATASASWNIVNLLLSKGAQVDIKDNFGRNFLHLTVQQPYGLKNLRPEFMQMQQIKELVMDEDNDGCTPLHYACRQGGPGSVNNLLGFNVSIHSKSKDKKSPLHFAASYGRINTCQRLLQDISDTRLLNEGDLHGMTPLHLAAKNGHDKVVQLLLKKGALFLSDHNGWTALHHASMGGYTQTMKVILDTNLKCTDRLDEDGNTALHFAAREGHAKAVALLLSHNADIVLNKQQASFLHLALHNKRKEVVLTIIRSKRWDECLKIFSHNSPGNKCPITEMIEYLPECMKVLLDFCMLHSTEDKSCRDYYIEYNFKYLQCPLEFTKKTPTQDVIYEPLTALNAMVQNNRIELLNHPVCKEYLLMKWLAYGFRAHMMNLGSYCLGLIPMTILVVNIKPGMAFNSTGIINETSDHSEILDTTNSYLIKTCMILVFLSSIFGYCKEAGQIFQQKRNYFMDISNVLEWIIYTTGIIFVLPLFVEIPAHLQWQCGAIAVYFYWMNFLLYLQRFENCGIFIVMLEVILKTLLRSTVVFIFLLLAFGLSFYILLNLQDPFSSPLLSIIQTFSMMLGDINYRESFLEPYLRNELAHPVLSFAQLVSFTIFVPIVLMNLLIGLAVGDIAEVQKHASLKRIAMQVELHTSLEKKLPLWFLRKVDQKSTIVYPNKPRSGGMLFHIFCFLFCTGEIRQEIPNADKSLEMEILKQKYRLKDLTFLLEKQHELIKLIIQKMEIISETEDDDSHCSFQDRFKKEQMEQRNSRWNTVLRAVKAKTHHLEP
Assay [6] deals with T5, Cytochrome P450 2C19 (Homo sapiens, UniProt P33261). The assay is described as follows: Mixed inhibition of CYP2C19 (unknown origin). The format is ADME.
T5 sequence (P33261 whole entry): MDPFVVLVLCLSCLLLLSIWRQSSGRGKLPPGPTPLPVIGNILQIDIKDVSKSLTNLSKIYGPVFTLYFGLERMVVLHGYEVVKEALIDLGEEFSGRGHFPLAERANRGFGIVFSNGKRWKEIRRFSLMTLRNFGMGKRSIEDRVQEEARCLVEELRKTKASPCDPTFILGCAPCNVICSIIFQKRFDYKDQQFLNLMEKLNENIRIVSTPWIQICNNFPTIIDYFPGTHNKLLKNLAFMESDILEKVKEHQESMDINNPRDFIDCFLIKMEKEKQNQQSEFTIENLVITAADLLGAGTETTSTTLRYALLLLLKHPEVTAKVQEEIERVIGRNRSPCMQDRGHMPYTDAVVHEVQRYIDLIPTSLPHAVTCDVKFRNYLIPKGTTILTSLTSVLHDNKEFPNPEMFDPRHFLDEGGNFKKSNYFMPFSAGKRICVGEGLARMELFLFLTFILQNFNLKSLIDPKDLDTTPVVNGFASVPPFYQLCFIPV
The target in assay [7] is G-protein coupled receptor 55 (Homo sapiens, UniProt Q9Y2T6). The assay is described as follows: Binding affinity to human GPR55 expressed in HEK293 cells assessed as LPI-stimulated ERK1/2 phosphorylation. The format is cell-based.
Chain of G-protein coupled receptor 55 (Q9Y2T6 whole entry): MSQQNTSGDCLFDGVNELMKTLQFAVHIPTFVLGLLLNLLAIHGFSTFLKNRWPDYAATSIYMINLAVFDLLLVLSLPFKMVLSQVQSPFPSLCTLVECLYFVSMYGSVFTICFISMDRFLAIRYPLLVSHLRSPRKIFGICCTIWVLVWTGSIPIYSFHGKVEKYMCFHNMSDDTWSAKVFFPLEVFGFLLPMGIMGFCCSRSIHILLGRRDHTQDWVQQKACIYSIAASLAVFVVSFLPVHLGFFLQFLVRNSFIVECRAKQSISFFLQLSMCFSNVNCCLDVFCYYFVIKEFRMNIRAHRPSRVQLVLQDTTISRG
Assay [8] deals with T4, Transient receptor potential cation channel subfamily A member 1. The assay is described as follows: Agonist activity at TRPA1 (unknown origin) activation assessed as efficacy relative to control. To be noted: filed as agonist.
In assay [9] the target is Transient receptor potential cation channel subfamily M member 8 (Homo sapiens, UniProt Q7Z2W7). The assay is described as follows: Antagonist activity at TRPM8 (unknown origin) desensitization in presence of icilin.
Chain of Transient receptor potential cation channel subfamily M member 8 (Q7Z2W7 whole entry): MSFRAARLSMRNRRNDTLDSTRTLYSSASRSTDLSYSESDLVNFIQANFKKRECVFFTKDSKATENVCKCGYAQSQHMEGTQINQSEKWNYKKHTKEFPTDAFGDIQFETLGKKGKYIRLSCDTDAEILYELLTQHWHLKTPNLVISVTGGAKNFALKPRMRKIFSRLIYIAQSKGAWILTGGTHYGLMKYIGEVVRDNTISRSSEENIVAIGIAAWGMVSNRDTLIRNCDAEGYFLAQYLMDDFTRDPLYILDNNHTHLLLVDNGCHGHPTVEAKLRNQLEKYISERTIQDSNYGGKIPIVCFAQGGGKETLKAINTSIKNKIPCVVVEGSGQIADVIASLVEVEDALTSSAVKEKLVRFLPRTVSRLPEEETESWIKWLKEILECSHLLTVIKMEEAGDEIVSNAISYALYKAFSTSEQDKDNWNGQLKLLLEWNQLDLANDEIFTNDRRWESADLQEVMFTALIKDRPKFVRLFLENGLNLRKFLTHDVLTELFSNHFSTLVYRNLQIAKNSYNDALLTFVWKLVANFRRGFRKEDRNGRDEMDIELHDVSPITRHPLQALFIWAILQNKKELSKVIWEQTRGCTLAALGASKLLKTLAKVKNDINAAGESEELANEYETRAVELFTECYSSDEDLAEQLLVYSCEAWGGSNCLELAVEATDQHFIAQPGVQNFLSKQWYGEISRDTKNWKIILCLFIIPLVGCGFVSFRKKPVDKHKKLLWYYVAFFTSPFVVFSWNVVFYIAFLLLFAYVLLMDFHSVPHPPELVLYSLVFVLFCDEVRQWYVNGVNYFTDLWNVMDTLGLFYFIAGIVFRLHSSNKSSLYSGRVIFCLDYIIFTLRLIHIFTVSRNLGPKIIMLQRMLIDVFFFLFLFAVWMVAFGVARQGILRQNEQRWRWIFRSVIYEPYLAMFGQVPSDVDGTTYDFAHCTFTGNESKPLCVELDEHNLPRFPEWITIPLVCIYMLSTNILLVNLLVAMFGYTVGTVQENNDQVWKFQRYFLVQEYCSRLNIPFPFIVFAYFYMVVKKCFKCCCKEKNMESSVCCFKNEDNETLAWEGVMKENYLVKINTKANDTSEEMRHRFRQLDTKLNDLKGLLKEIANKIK
For assay [10], the target named is T5, Cytochrome P450 2C19. The assay is described as follows: Mixed inhibition of CYP2C19 (unknown origin) by measuring inhibition constant. Type of assay: ADME.
A further assay has as its target Cytochrome P450 1A1 (Homo sapiens, UniProt P04798). The assay is described as follows: Inhibition of recombinant CYP1A1 (unknown origin) preincubated with NADPH for 20 mins and measured after 30 min. Type of assay: ADME.
For assay [11], the target named is T4, Transient receptor potential cation channel subfamily A member 1. The assay is described as follows: Agonist activity at TRPA1 (unknown origin) channel desensitization in presence of isothiocyanate.
In assay [12] the target is T1, Transient receptor potential cation channel subfamily V member 1. The assay is described as follows: Agonist activity at ionomycin-stimulated TRPV1 (unknown origin) channel desensitization in presence of capsaicin.

T1 sequence (Q8NER1 whole entry): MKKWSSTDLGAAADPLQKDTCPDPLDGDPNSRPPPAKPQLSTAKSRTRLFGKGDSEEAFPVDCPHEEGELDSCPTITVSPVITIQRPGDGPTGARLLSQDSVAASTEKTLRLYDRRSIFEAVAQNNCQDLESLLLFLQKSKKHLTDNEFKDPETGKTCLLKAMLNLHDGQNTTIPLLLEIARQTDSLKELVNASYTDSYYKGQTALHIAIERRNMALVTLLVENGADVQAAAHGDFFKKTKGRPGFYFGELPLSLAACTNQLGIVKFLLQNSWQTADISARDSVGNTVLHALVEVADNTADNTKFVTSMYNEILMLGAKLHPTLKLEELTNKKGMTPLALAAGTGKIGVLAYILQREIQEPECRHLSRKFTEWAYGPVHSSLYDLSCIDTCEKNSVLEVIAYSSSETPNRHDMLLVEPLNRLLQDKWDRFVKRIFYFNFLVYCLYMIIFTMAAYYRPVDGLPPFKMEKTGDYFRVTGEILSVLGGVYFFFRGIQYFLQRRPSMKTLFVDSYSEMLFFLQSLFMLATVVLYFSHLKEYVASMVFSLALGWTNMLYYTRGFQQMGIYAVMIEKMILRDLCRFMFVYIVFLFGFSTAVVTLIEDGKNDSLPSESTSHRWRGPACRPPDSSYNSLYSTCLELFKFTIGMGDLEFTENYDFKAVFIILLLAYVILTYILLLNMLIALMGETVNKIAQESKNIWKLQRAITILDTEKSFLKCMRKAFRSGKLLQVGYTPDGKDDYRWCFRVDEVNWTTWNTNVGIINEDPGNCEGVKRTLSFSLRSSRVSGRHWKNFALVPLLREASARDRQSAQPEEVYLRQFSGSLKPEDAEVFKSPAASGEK
Chain of Cytochrome P450 1A1 (P04798 whole entry): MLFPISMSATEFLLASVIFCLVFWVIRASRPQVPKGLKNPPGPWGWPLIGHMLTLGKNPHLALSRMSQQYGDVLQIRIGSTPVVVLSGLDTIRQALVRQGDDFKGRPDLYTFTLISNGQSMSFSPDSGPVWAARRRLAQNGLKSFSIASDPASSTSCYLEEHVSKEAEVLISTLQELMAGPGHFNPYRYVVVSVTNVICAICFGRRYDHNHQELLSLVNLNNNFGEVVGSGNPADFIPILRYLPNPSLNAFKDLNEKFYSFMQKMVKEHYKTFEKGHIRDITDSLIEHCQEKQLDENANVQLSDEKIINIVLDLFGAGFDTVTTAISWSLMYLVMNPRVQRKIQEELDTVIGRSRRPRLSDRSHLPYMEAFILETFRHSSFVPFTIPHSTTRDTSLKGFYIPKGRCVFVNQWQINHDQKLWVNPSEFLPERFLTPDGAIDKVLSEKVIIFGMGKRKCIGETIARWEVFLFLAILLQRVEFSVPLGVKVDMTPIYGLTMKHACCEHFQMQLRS
Chain of G-protein coupled receptor 6 (P46095 whole entry): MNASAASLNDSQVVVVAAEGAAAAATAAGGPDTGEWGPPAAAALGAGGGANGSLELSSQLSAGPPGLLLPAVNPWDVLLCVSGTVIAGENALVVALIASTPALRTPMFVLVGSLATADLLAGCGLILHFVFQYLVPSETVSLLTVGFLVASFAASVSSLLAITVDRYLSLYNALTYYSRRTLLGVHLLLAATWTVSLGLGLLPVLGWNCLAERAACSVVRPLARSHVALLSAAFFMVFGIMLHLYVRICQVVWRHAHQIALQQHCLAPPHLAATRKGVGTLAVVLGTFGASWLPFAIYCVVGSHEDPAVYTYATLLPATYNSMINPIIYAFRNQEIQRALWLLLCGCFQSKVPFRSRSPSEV

What is called EC50 is the concentration at which the effect is half-maximal. A word on the IC50: it is the midpoint of a concentration-inhibition curve. The Ki is the dissociation constant of the complex between target and ligand, obtained from inhibition or displacement. Regarding `C=C(C)[C@@H]1CCC(C)=C[C@H]1c1c(O)cc(CCC)cc1O` [CANNABIDIVARIN], the Efficacy in assay [1] was determined as 21%; in [2] it was 90%; in [3], 16%; in [4] it was 50%; in [8] it was 105%. For the same compound, the concentration giving a half-maximal response (EC50) in assay [5] stood at 420 nM; in assay [7] it was 400 nM. The IC50 against Cytochrome P450 2C19 [6] came out at 3700 nM; in [9], 900 nM; at Cytochrome P450 1A1 it was 60 nM; in [11] it was 1300 nM; in assay [12] it was 10000 nM. Moreover, the Ki at Cytochrome P450 2C19 [10] was determined as 1400 nM.
